Test results from patent US20150031996A1, “SEMICONDUCTING POLYMER NANOPARTICLES AS PHOTOACOUSTIC MOLECULAR IMAGING PROBES” (The Board of Trustees of the Leland Stanford Junior …, priority 2013, published 2015).

Assay: Kinetic study of ROS-mediated degradation of IR775S (fluorescence at 800 nm)
Format: physicochemical
Conditions: presence of peroxynitrite (ONOO^−) and hypochlorite (ClO^−), 2 μM, 1×PBS pH=7.4
Experimental: FIGS. 26A and 26B illustrate a kinetic study of ROS-mediated degradation of 1R7755 by detecting its fluorescence decrease at 800 nm after addition of ROS.
FIG. 26B illustrates a time course of the fluorescence of 1R775S at 800 nm after addition of indicated ROS (FIG. 26B top: ONOO^−, ClO^−; FIG. 26B bottom: ^1O2 and H2O2) in 1×PBS (pH=7.4). [1R775]=1 μg/mL. [ROS]=2 μM.

With CN1C(=CC=C2CCCC(C=CC3=[N+](C)c4ccccc4C3(C)C)=C2SCCC(=O)O)C(C)(C)c2ccccc21.[O-][Cl+3]([O-])([O-])[O-] [1R775S, 2-[4′-(β-carboxyethylthio)-7′-(1″,3″,3″-trimethylindolenine)-3′,5′-trimethyleneheptatrien-1-yl]-1,3,3-trimethylindolenium perchlorate] the “degradation by ROS” value was “nearly instant degradation”.
